In patent EP0292365A2, “4-Amino-5,8-quinazolindione derivatives, process for their preparation and pharmaceutical compositions containing them” (CENTRE NATIONAL DE LA RECHERCHE SCIENTIFIQUE, priority 1987, dated 1988):
Read-outs that look alike come from different tables or passages of the source.

Legend:
cellules MCF-7 = test: Effect on cell cycle phases, MCF-7 line; assay type: cell-based, humaine; details: summary of tableau D
Protocol: Les cellules tumorales en croissance exponentielle sont ensemencées (10.000 cellules/ml) dans des boîtes à Petri contenant au fond de la boîte un couvre-objet (18 x 18 mm) et 3 ml de MEM (MEM = milieu essentiel minimum) + 5 % FCS (FCS = serum de veau fetal) (v/v). Après 24 heures d'incubation, quand les cellules sont bien attachées au fond de la boîte, le milieu est remplacé par MEM expérimental contenant 5 % FCS (v/v) et enrichi, par exemple de : • a) 3 ml du milieu (MEM + 5 % FCS) = témoins • b) 3 ml du milieu contenant une dose élevée du composé à tester : 10 µg/ml : (M) • c) milieu contenant une faible dose du composé à tester : 0.01 µg/ml (f) respectivement aux jours 1, 2, 3 et 4 après addition du milieu expérimental dans les boîtes de Petri. Trois couvre-objets sont fixés pour chaque condition expérimentale : éthanol 95° (75 v), formol neutre à 40 % (20 v), acide acétique (5 v), pendant 10 minutes. Les cellules témoins cultivées dans le milieu expérimental sans le produit à tester sont fixées au même moment. A la fin de la fixation, les couvre-objets sont retournés et montés sur des lames histologiques à l'aide de produit commercialisé sous la marque DPX par la Société British Drug House et conservés à l'abri de la lumière et à 4° en attendant d'être colorés.
Les lames avec les couvre-objets sont colorées par une réaction de Feulgen modifiée. […]

Leucémie P388 = assay type: in vivo, souris DBA/2; details: for survivants 30 jours / Δ P J1-J5 / T/C / Doses actives (T/C ≥ 125 %): P388; for T/C: survivants inclus; for activité antitumorale sur la leucémie P388: summary
Source text: Afin de tester l'activité antitumorale des composés décrits plus haut, on a utilisé les leucémies murines P388 et L1210, ainsi que le mélanome murin B16. La leucémie P388 est considère comme très sensible et permet une première sélection. D'autre part, une substance ayant une grande activité sur la leucémie L1210 a une grande chance d'être active en clinique humaine (J.M. Venditti; Relevance of transplantable animal tumor systems to the Selection of new agents for clinical trial in pharmacological basis of cancer chemotherapy. The University of Texas ed. Williams and Wilkins, publ. 1975, Baltimore USA).
Cette étude a été réalisée sur 1, 2 ou 3 tumeurs murines expérimentales selon le schéma suivant :
Les produits en solution dans l'eau ou en suspension dans du Klucel sont administrés par voie intrapéritonéale 24 heures après la greffe des cellules tumorales (10 animaux par série), soit en injection unique (J1), soit pendant 9 jours consécutifs (Ji-9). Les morts sont relevés chaque jour à la même heure. La comparaison du temps médian de survie des souris témoins (C) et des souris traitées (T) permet d'apprécier l'activité antitumorale du produit. On adopte comme critère d'activité minimale la valeur de T/C supérieure ou égale à 125 % conformément aux critères établis par GERAN et par l'O.M.S. (Réf. GERAN R.I., GREENBERG N.H., MACDONALD M.M., SCHUMACHER A.M. and ABBOTT B.J. Protocols for screening chemical agents and natural products against animal tumors and other biological systems. Cancer Chemother. Rep. Part 3, 3, 1-103 (1972)).
Lorsque le composé est actif sur plusieurs tumeurs, son administration par d'autres voies que la voie intrapéritonéale (i.p.) est envisagée : orale (p.o) et intraveineuse (i.v). Les résultats des essais effectués à l'aide du composé 63 sont rassemblés dans le tableau IV ci-après.
Les résultats des essais effectués à l'aide des composés de l'invention n° 57 et 59 sont rassemblés dans le tableau IV Bis ci-après.
Dans les tableaux IV et IV Bis, P représentent la variation de poids entre J1 et J5 des animaux traités; lorsque P est supérieure à environ 4 g, cela signifie que la dose à laquelle le composé a été testé est toxique.

[1] = Solubility in water (statement); assay type: physicochemical
[2] = greffe ip(10^6cel.), ip J1-9, dose optimale 0,4 mg/kg/inj.
[3] = greffe ip(10^6cel.), ip J1, dose 1,25 mg/kg/inj.
[4] = greffe ip(10^6cel.), ip J1, dose optimale 3 mg/kg/inj.
[5] = greffe ip(10^6cel.), iv J1, dose 1,25 mg/kg/inj. (2 doses testées)
[6] = greffe ip(10^6cel.), po J1, dose optimale 30 mg/kg/inj.
[7] = greffe iv(10^5cel.), iv J1, dose 1,25 mg/kg/inj. (1 seule dose testée)

For `CN(C)CCCNc1ncnc2c1C(=O)C(N1CC1)=C(N1CC1)C2=O` [composé 63], the “effet sur le cycle cellulaire (MCF-7)” value (cellules MCF-7) was “bloque les cellules en phase S”, the “survivants 30 jours” value (Leucémie P388; [2]) was 0 and the “Δ P J1-J5” value (Leucémie P388; [2]) was -2,1 g. The T/C (Leucémie P388; [2]) was 222%, the “survivants 30 jours” value (Leucémie P388; [3]) was 1 and the “Δ P J1-J5” value (Leucémie P388; [3]) was -1,7 g. The T/C (Leucémie P388; [3]) was 174%, the “survivants 30 jours” value (Leucémie P388; [4]) was 0 and the “Δ P J1-J5” value (Leucémie P388; [4]) was -2,0 g. The T/C (Leucémie P388; [4]) was 188%, the “survivants 30 jours” value (Leucémie P388; [5]) was 0 and the “Δ P J1-J5” value (Leucémie P388; [5]) was -0,7 g. For the same compound, the T/C (Leucémie P388; [5]) was 136%, the “survivants 30 jours” value (Leucémie P388; [6]) was 0 and the “Δ P J1-J5” value (Leucémie P388; [6]) was -4,7 g. For the same compound, the T/C (Leucémie P388; [6]) was 140%, the “Doses actives (T/C ≥ 125 %)” value (Leucémie P388; greffe ip(10^6cel.), traitement ip J1) was 0,1-3 mg/kg/inj and the “Doses actives (T/C ≥ 125 %)” value (Leucémie P388; greffe ip(10^6cel.), traitement ip J1-9) was 0,017-0,8 mg/kg/inj. For the same compound, the “Doses actives (T/C ≥ 125 %)” value (Leucémie P388; greffe ip(10^6cel.), traitement po J1) was 20-30 mg/kg/inj, the “survivants 30 jours” value (Leucémie P388; [7]) was 0 and the “Δ P J1-J5” value (Leucémie P388; [7]) was -0,1 g. The T/C (Leucémie P388; [7]) was 147%, the “activité antitumorale sur la leucémie P388” value (Leucémie P388; par voie orale et par voie intraveineuse) was “reste actif” and the “activité antitumorale sur la leucémie P388” value (Leucémie P388; voie intrapéritonéale) was “excellente activité antitumorale”. For the same compound, the “solubilité dans l'eau” value [1] was “hydrosoluble”.
